The values that follow come from patent US10596185B2, “Flavonoid compositions and uses thereof” (INGREDIENTS BY NATURE, priority 2014, dated 2020).

The term EC50 denotes the concentration needed to bring the measured effect to its halfway point.

In brackets after ≈: the same amount, converted by molar mass. Where two headings read alike, the source gives them in different places. Marks after values point to notes of the source that are not given here.

One assay has as its system NF-kB. The assay is described as follows: NF-kB-luciferase assay system in C2C12 cell line. In kind it is cell-based. The following applies: for Compare quercetin (EC50 NF-kB): NF-kB inhibitory activity relative to quercetin. How it is done:
Activity of the complex was measured using a C2C12 cell line with a NF-kB-luciferase assay system (Affymetrix, Santa Clara, Calif.), and compared to a number of flavonoid controls.

The test system of another assay is TNF-alpha. The assay is described as follows: TNF-alpha level in mice fed a high-fat diet. It counts as in vivo. The following applies: mean ± standard deviation. On the procedure: (§1) The effects of eriocitrin and eriodictyol on anti-inflammatory markers were determined in mice fed a high-fat diet and compared to negative control, untreated mice that were fed either a standard- or high-fat-diet. Eriocitrin and eriodictyol effects were also compared against ibuprofen- and hesperidin-treated, high-fat-diet-fed mice. The effects of these various treatments on the cytokines IL-6, IL-10, MCP-1, and TNF-alpha are shown below.

The next assay deals with IL-6. The assay can be described thus: IL-6 level in mice fed a high-fat diet. In kind it is in vivo. The following applies: for IL-6: high fat diet mice, mean ± standard deviation. How it is done: as §1
For another assay, the system named is MCP-1. The assay is described as follows: MCP-1 level in mice fed a high-fat diet. It counts as in vivo. The following applies: for MCP-1: high fat diet mice, mean ± standard deviation. How it is done:
as §1

Another assay relates to IL-10. The assay can be described thus: IL-10 level in mice fed a high-fat diet. It counts as in vivo. The following applies: mean ± standard deviation. On the procedure: as §1
Assay [1] is described as follows: Total ORACFN (sum over the five reactive species). It counts as biochemical. Further details: ORAC-FN: unit not given here. Conditions: for ORAC-FN: Table 5 summary, total ORACFN, unit not given; for Compare quercetin (ORAC-FN): anti-oxidant activity relative to quercetin. How it is done: This example describes the anti-oxidant activity of the eriodictyol complex described in Table 1. Anti-oxidant activity was measured using an oxygen radical absorbance capacity assay for food and nutrition ([…]). The assay was performed using techniques known in the art, such as those disclosed in Ou, B. et al., J Agric and Food Chem, 2001, 49 (10): 4619-4626; Huang, D. et al., J Agric and Food Chem, 2002, 50 (7): 1815-1821; Ou, B. et al., J Agric and Food Chem, 2002, 50 (10): 2772-2777; Zhang, L. et al., Free Radic. Bio Med, 2007, 43 (suppl. 1): S17; Dubost, N.J. et al., Food Chem, 2007, 105 (2): 727-735; Zhang, L. et al., J Agric and Food Chem, 2009, 57(7): 2661-2667; and U.S. Pat. No. 7,132,296, the contents of all of which are incorporated herein by reference. The activity of the eriodictyol complex against peroxyl radicals, hydroxyl radicals, peroxynitrite, super oxide anion, and singlet oxygen was measured. The total […] was also measured.

Assay [2] is described as follows: Clinical study of metabolic syndrome symptoms (fasting glucose, insulin, hs-CRP, lipid panel). In kind it is in vivo. The following applies: humans, after 30 days, ≥10 hour fast, versus placebo. How it is done: A clinical study is performed in which subjects undergo a one-week run-in period during which subject document baseline data. Subjects meeting the inclusion/exclusion criteria are enrolled in the study and sent a glucometer to determine their fasting blood glucose levels. Those meeting the study criteria are enrolled in the study.
The subjects fast for at least 10 hours, and their fasting glucose, fasting insulin, hs-CRP levels, and lipid panels (including LDL, HDL, and triglycerides) are measured. Following these baseline measurements, subjects consume (1) 50 mg-2 g/day eriocitrin; (2) 50 mg-2 g/day eriocitrin, 50-250 mg/day neoeriocitrin, 50-250 mg/day hesperidin; or (3) a placebo. After 30 days, the subjects' glucose, insulin, hs-CRP, and lipid panel measurements are taken after a ≥10 hour fast.

The mark [3] stands for this setting: Mus musculus, NF-kB inhibition, C2C12 cell line, NF-kB-luciferase, read-out: EC50.
[4] abbreviates: Mus musculus, C2C12, Table 5 summary, unit inferred, read-out: EC50 NF-kB.
Setting [5] is: high-fat-diet-fed mice, in words.

On to `O=c1c(O)c(-c2ccc(O)c(O)c2)oc2cc(O)cc(O)c12` [Quercetin•2H2O], for which the half-maximal effective concentration (EC50) in the assay on NF-kB (setting [3]) was determined as 31.5 µg/mL (≈ 104 µM).

For `COc1ccc([C@@H]2CC(=O)c3c(O)cc(O[C@@H]4O[C@H](CO[C@@H]5O[C@@H](C)[C@H](O)[C@@H](O)[C@H]5O)[C@@H](O)[C@H](O)[C@H]4O)cc3O2)cc1O` [Hesperidin], in the assay with TNF-alpha, the TNF-alpha is reported as 2.7 ± 0.3. In addition, the IL-6 in the assay on IL-6 is 5.9 ± 4.6^a. Also, in the assay with MCP-1, the MCP-1 was 27.6 ± 9.0^a. Besides, the IL-10 in the assay with IL-10 is recorded as 5.3 ± 2.4.

The molecule `CC(C)Cc1ccc(C(C)C(=O)O)cc1` (stereo not drawn) [Ibuprofen] returned a TNF-alpha in the assay on TNF-alpha of 1.2 ± 2.4. For the same molecule, the IL-6 in the assay with IL-6 is 21.9 ± 18.1^a. Also, in the assay with MCP-1, the MCP-1 is recorded as 43.4 ± 31.5^ab. For the same molecule, the IL-10 in the assay on IL-10 worked out at 6.0 ± 4.5.

On to `COc1ccc([C@@H]2CC(=O)c3c(O)cc(O[C@@H]4O[C@H](CO[C@@H]5O[C@@H](C)[C@H](O)[C@@H](O)[C@H]5O)[C@@H](O)[C@H](O)[C@H]4O)cc3O2)cc1O` [Hesperidin 90, Hesperidin], for which, in assay [1], the ORAC-FN came to 6067 and the “Compare quercetin (ORAC-FN)” value is reported as 0.092. In the assay on NF-kB (NF-kB inhibition, C2C12 cell line, NF-kB-luciferase), this molecule came in with an EC50 of 275.70 µg/mL (≈ 452 µM). The “Compare quercetin (EC50 NF-kB)” value with NF-kB turned out to be 0.09. The “EC50 NF-kB” value in the assay on NF-kB (Table 5 summary, unit not given, in µg/mL) worked out at 275.70.

As for `C[C@@H]1O[C@@H](O[C@H]2[C@H](Oc3cc(O)c4c(c3)O[C@H](c3ccc(O)cc3)CC4=O)O[C@H](CO)[C@@H](O)[C@@H]2O)[C@H](O)[C@H](O)[C@H]1O` [Naringin], in assay [1], the ORAC-FN worked out at 22389 and the “Compare quercetin (ORAC-FN)” value was 0.339. Moreover, in the assay on NF-kB (setting [4]), the concentration giving a half-maximal response (EC50) stood at 381 µg/mL (≈ 656 µM). In addition, in the assay with NF-kB (setting [3]), the 50% effective concentration (EC50) is 381 µg/mL (≈ 656 µM). Moreover, the “Compare quercetin (EC50 NF-kB)” value with NF-kB was 0.07.

In the case of `C[C@@H]1O[C@@H](OC[C@H]2O[C@@H](Oc3cc(O)c4c(c3)O[C@H](c3ccc(O)c(O)c3)CC4=O)[C@H](O)[C@@H](O)[C@@H]2O)[C@H](O)[C@H](O)[C@H]1O` [Eriocitrin, eriodictyol 7-O-B-rutinoside], the TNF-alpha with TNF-alpha was determined as 2.4 ± 0.6. In the assay on IL-6, the IL-6 is reported as 3.1 ± 1.6^a. For the same molecule, in the assay on IL-6 (setting [5]), the “IL-6 levels in comparison to the negative controls” value was “significantly reduced”. The MCP-1 with MCP-1 is on record as 19.3 ± 11.1^a. The “MCP-1 levels in comparison to the negative controls” value in the assay with MCP-1 (setting [5]) is “significantly reduced”. In assay [2], the HDL levels result is reported as “increased”, the LDL levels entry is reported as “reduced”, the glucose levels entry is listed as “reduced” and the hs-CRP levels result is “reduced”. In assay [2], the insulin levels result was “reduced” and the total cholesterol levels entry was “reduced”. Moreover, in assay [1], the ORAC-FN is 31355 and the “Compare quercetin (ORAC-FN)” value is listed as 0.475. This molecule also yielded an IL-10 with IL-10 of 4.0 ± 2.2. Moreover, the concentration giving a half-maximal response (EC50) with NF-kB (setting [4]) was found to be 71.4 µg/mL (≈ 120 µM). Also, in the assay on NF-kB (setting [3]), the EC50 was 71.4 µg/mL (≈ 120 µM). In the assay on NF-kB, the “Compare quercetin (EC50 NF-kB)” value is recorded as 0.35.

Take `COc1ccc(-c2cc(=O)c3c(O)cc(O[C@@H]4O[C@H](CO[C@@H]5O[C@@H](C)[C@H](O)[C@@H](O)[C@H]5O)[C@@H](O)[C@H](O)[C@H]4O)cc3o2)cc1O` [Diosmin]: in assay [1], the ORAC-FN is 373 and the “Compare quercetin (ORAC-FN)” value is given as 0.006. In addition, the half-maximal effective concentration (EC50) with NF-kB (setting [4]) came to 349 µg/mL (≈ 573 µM). In addition, the EC50 with NF-kB (setting [3]) is 349 µg/mL (≈ 573 µM). In the assay with NF-kB, the “Compare quercetin (EC50 NF-kB)” value is on record as 0.07.

With `O=C1C[C@@H](c2ccc(O)cc2)Oc2cc(O)cc(O)c21` [Naringenin], in assay [1], the ORAC-FN is 59454 and the “Compare quercetin (ORAC-FN)” value was 0.901. Also, the EC50 in the assay with NF-kB (setting [4]) stood at 32 µg/mL (≈ 118 µM). In addition, the EC50 in the assay with NF-kB (setting [3]) came to 32 µg/mL (≈ 118 µM). The “Compare quercetin (EC50 NF-kB)” value in the assay with NF-kB came to 0.78.

Take `COc1ccc([C@@H]2CC(=O)c3c(O)cc(O)cc3O2)cc1O` [Hesperitin 95, Hesperitin]: in assay [1], the ORAC-FN was 77875 and the “Compare quercetin (ORAC-FN)” value was 1.180. The EC50 in the assay with NF-kB (setting [4]) came to 54.2 µg/mL (≈ 179 µM). Besides, in the assay on NF-kB (setting [3]), the EC50 worked out at 54.2 µg/mL (≈ 179 µM). Also, the “Compare quercetin (EC50 NF-kB)” value in the assay on NF-kB is on record as 0.46.
